From US12522827B2 (priority 2021, dated 2026)
l = locked nucleic acid (LNA); d = 2'-deoxy (DNA)

Legend:
PR8 (H1N1) virus = format: cell-based, Influenza A/PR/8/34 (PR8) H1N1 virus
[1] = tested on: A/Hong Kong/8/68 (HK68) (H3N2) virus; format: cell-based, Influenza A/Hong Kong/8/68 (HK68) H3N2 virus
wild-type PR8 virus = tested on: wild-type PR8 virus; design: species or system Balb/C female mice; settings: mouse, in vivo

AccAaaAGaaT (ACCAAAAGAAT; antisense; sugars from the 5' end lddlddllddl, backbone and methylation of C not given here) [LNA1]
effect on viral titer / viral production (PR8 (H1N1) virus): little to no effect
effect on viral titer / viral production [1]: little to no effect

AGAcagcgaccaaAAG (AGACAGCGACCAAAAG; antisense; sugars from the 5' end l3 d10 l3, backbone and methylation of C not given here) [LNA8a]
drop in viral production (antiviral activity) (PR8 (H1N1) virus): up to 3 logs
drop in viral production (antiviral activity) [1]: up to 3 logs

TACTtactgacaGCC [LNA9]
antiviral response, cells pre-treated (PR8 (H1N1) virus): greater than 4 logs
drop in viral production (antiviral activity) (PR8 (H1N1) virus): ~5 logs
suppression of viral titer, post-infection treatment (PR8 (H1N1) virus): greater than 3 logs
viral inhibition at the lowest dilution (PR8 (H1N1) virus): greater than 2 logs
drop in viral production (antiviral activity) [1]: ~4 logs
clinical signs of disease (wild-type PR8 virus): little-to-no clinical signs of disease
protection from fatal influenza disease (survival) (wild-type PR8 virus): completely protected
recovery of weight (wild-type PR8 virus): fully recovered to pre-infection weight
weight loss (wild-type PR8 virus): minimal weight loss

CATACTTA [LNA5]
effect on viral titer / viral production (PR8 (H1N1) virus): failed to inhibit viral production
effect on viral titer / viral production [1]: failed to inhibit viral production

CagaCaCGaCCaaAA (CAGACACGACCAAAA; antisense; sugars from the 5' end ldddldlldllddll, backbone and methylation of C not given here) [LNA6]
titer deficits (PR8 (H1N1) virus): greater than 2 log10

TagCAtActtA (TAGCATACTTA; antisense; sugars from the 5' end lddlldldddl, backbone and methylation of C not given here) [LNA3]
effect on viral titer / viral production (PR8 (H1N1) virus): failed to inhibit viral production
effect on viral titer / viral production [1]: failed to inhibit viral production

CCAAAAGA [LNA4]
effect on viral titer / viral production (PR8 (H1N1) virus): little to no effect
effect on viral titer / viral production [1]: little to no effect
